Article PMC9000318, “Identification and Validation of a New Peptide Targeting Pancreatic Beta Cells” (Molecules, 2022)
Ends that are not written are not given here. * marks the point of attachment. FITC = O=C1OC2(c3ccc(O)cc3Oc3cc(O)ccc32)c2ccc(NC(=S)*)cc21

Experiments:
islet cells [1] = experiment: FACS binding to islet cells; assay type: cell-based, ICR mouse; conditions: flow cytometry, FITC-labeled peptide, 2 h incubation, islets digested to single cells
Description: (§1) Purified FITC-labeled candidate peptides were used for the peptide-based immunofluorescence assay to confirm the selective binding of the selected peptides to the used cells. FITC-labeled peptide-based immunofluorescence assay was performed, and FITC-labeled peptide (1 μM) was added to each well and then incubated for 2 h at room temperature. The wells were washed with PBS three times and directly mounted with vectashield mounting medium after DAPI staining. The cells were visualized under fluorescence microscope. In addition, to determine the binding location of the peptide, MIN6 cells were labeled with LNTPLKS-FITC and further observed under confocal microscope. For fluorescence activated cell sorting, purified islets and KPC cells were incubated in 6 well plates; 24 h later, FITC-labeled peptide was added with a final concentration of 1 μM. After 2 h of incubation, cells were washed with PBS three times and harvested for FACS to quantitatively analyze the binding affinity of the peptide to the different cell types (islets was digested to single cells before FACS analyzing).

KPC cells = experiment: FACS binding to KPC cells; assay type: cell-based, murine; conditions: flow cytometry, FITC-labeled peptide, 2 h incubation
Description: as §1

primary islet cells = test system: primary islet cells
Source text: Mice insulinoma cell line MIN6 were obtained from the Academy of Sciences Cell Bank of Shanghai and routinely cultured in RPMI-1640 medium (Gibco, Shanghai, China), supplemented with 10% (v/v) fetal bovine serum (FBS) and 1% (v/v) penicillin-streptomycin. The murine pancreatic cancer cell line KPC and the hepatocellular carcinoma cell line (HCC-LM3) were kindly provided by Tingbo Liang’s Research Group (Zhejiang University, Hangzhou, China). KPC cells were maintained in RPMI-1640 medium (Gibco, Shanghai, China), supplemented with 20% FBS, 1% sodium pyruvate (100×), and 1% MEM Non-Essential Amino Acids (NEAA 100×). HCC-LM3 cells were maintained in Dulbecco’s modified Eagle’s medium (DMEM; Gibco, Shanghai, China) with 10% FBS and 1% (v/v) penicillin-streptomycin. The primary islets were isolated by collagenase digestion from ICR (Institute of Cancer Research) mice and separated by density gradient centrifugation as previously described. The islets were incubated at 37 °C in 2 mL RPMI-1640 medium at a density of 100–150 islets per well in 6-well plates and maintained at 37 °C with 5% CO2.
To investigate the effect of LNTPLKS on the viability of the islet cells, different concentrations of LNTPLKS (0, 0.5, 1, 10 μM) were separately co-incubated with islet cells in 96-well plates (triplicate wells for each concentration of peptide). Twenty-four hours later, MTT was added and incubated for 4 h. DMSO was added after centrifugation and the color development was read at an OD of 570 nm. Islet cells were incubated with different concentrations of peptides for 24 h at 37 °C. The supernatant was discarded, cells were rinsed twice with PBS, KRB buffer containing 3.3 mM glucose was added, and the cells were incubated for 30 min at 37 °C. The supernatant was discarded and cells were incubated with KRB buffer containing low glucose (3.3 mM) or high glucose (16.7 mM) for 1 h.

islets grafts = experiment: Binding to islet grafts under the renal capsule, kidney slices; conditions: islets transplanted under renal capsule of ICR mice, slices incubated 2 h
Description: (§2) In order to evaluate whether the LNTPLKS-FITC peptide could directly bind islets within the pancreas, the pancreas of ICR mice was collected and frozen sections were prepared. The cryosections were incubated with anti-insulin solution and LNTPLKS-FITC 2 h after treatment with BSA, followed by observation under fluorescence microscope. To determine whether LNTPLKS could bind to human islet, staining of paraffin-embedded human tissue sections were performed. Briefly, slices were deparaffinized and subsequently permeabilized by heating in antigen-unmasking solutions. After blocking with 2% BSA, slices were incubated with anti-insulin antibody at 4 °C overnight. Cy3-conjugated goat anti-mouse IgG (1:300 dilutions) antibody was incubated for 50 min at 24 °C. Then, the slices were incubated with DAPI and LNTPLKS-FITC or control peptide for 1 h at room temperature. Tissue slides were analyzed using a fluorescence microscope. To further confirm the specificity of peptide to islet, we transplanted islets under renal capsule of the ICR mice. Kidney slices containing islets grafts were prepared and incubated with LNTPLKS-FITC peptide. After 2 h of incubation, the slices were observed under fluorescence microscope.

[2] = test system: islets in pancreas cryosections; experiment: Binding to in situ islets, mouse pancreas cryosections; parameters: species or system ICR mice; conditions: 2 h incubation, anti-insulin counterstain, fluorescence microscope
Description: as §2

MIN6 cells [3] = experiment: FITC-labeled peptide-based immunofluorescence assay (ICC) on MIN6 cells; parameters: species or system mice; conditions: FITC-labeled peptide 1 μM, 2 h, room temperature; fluorescence microscope; KPC cells as cell control
Description: as §1

islet cells [4] = experiment: FITC-labeled peptide-based immunofluorescence assay on purified islets; assay type: cell-based, ICR mouse; conditions: fluorescence microscope
Description: as §1

MIN6 tumor = conditions: mouse, in vivo, 5 mg/kg
Source text: (§3) In total, 2 × 10^6 MIN6 cells and HCC-LM3 cells were subcutaneously inoculated in male nude mice for 4 weeks separately. After 16 days, the tumor grew to approximately 1.0 cm^3. […] The tumor, spleen, kidney and liver were harvested and their fluorescence intensity was quantified by in vivo imaging system (IVIS).

human islets = experiment: Binding to human islets, paraffin-embedded pancreatic tissue sections; conditions: paraffin sections from a donor, co-stained with anti-insulin antibody, 1 h room temperature
Description: as §2

pancreatic islet = experiment: In vivo targeting of pancreatic islets after tail vein injection; parameters: species or system mice; conditions: pancreas sliced, data not shown
Source text: The final goal of developing a beta cell-specific molecular probe is to provide a non-invasive, in vivo imaging method for measuring BCM during diabetes progression and tracking islet grafts after islet transplantation, so that necessary and timely intervention can be performed. Therefore, all presumed beta cell-specific probes screened in vitro have to be validated by in vivo studies. As the first step, we tested islet specificity using pancreatic slices and islet graft-containing slices. […] However, when it comes to in vivo studies, the results were obscure. We injected FITC-conjugated LNTPLKS peptide into the mice via tail vein and the pancreas was then sliced to detect the targeting of the peptide in the pancreatic islet. The fluorescence within pancreas was rather weak (data not shown). The unsatisfied result might be attributed to the degradation of the peptide in the body. Increasing peptide stability and its circulation time will facilitate cellular uptake. In the following study, the peptide LNTPLKS will be further processed by chemical modification (such as PEGylation) to protect the peptide from degradation in vivo without changing the targeting ability of the peptide, or by conjugating it with other imaging materials (iron oxide nanoparticle, radionuclide, etc.) to be monitored by MR, SPECT, or other imaging modalities with high sensitivity.

LM3 tumor = conditions: mouse, in vivo, 5 mg/kg
Source text: as §3

MIN6 cells [5] = experiment: Confocal microscopy, localization of the peptide in MIN6 cells; assay type: cell-based, mice; conditions: DAPI counterstain
Description: as §1

Row | Substance | mean fluorescence peak point, islet group (islet cells [1]) | mean fluorescence peak point, KPC cell group (KPC cells) | viability of the islet cells (primary islet cells; MTT, 24 h co-incubation, peptide concentration between 500 and 1 μM, triplicate wells) | glucose-stimulated insulin secretion (GSIS) (primary islet cells; peptide 24 h at 37 °C, between 500 and 1 μM, KRB buffer high glucose 16.7 mM, 1 h, insulin ELISA, three tests) | basical insulin secretion (BIS) (primary islet cells; peptide 24 h at 37 °C, between 500 and 1 μM, KRB buffer low glucose 3.3 mM, 1 h, insulin ELISA, three tests) | fluorescence of islets grafts in kidney slices (islets grafts) | fluorescence of islets in mouse pancreas cryosections [2] | FITC signal in MIN6 cells (MIN6 cells [3]) | affinity for the islet cells (fluorescent images) (islet cells [4]) | fluorescence average counts, kidney (MIN6 tumor) | fluorescence average counts, liver (MIN6 tumor) | fluorescence average counts, spleen (MIN6 tumor) | fluorescence average counts, tumor (MIN6 tumor) | binding to human islets in pancreatic tissue sections (human islets) | fluorescence within pancreas after injection (pancreatic islet) | fluorescence average counts, kidney (LM3 tumor) | fluorescence average counts, liver (LM3 tumor) | fluorescence average counts, spleen (LM3 tumor) | fluorescence average counts, tumor (LM3 tumor) | localization of the peptide on MIN6 cells (MIN6 cells [5])
1 | LNTPLKS | shifted to the right side | no such shift | only slightly affected | only slightly affected | only slightly affected | – | – | – | – | – | – | – | – | – | – | – | – | – | – | –
2 | SPPTGIN-FITC [random peptide SPPTGIN conjugated with FITC at the N-terminus, negative control, reference compound] | – | – | – | – | – | no fluorescence was observed | no fluorescent signal was merged with the anti-insulin signal | – | – | – | – | – | – | – | – | – | – | – | – | –
3 | {FITC}-LNTPLKS [LNTPLKS-FITC, LNTPLKS conjugated with fluorescein isothiocyanate (FITC) at the N-terminus] | – | – | – | – | – | fluorescent | fluorescent, whereas the surrounding exocrine tissues were not | significantly higher FITC signal | high affinity | 1.14 × 10^3 counts | 1.81 × 10^3 counts | 4.84 × 10^2 counts | 1.80 × 10^3 counts | identifiable within the islets and co-localized with insulin-producing cells | rather weak | 1.20 × 10^3 counts | 2.15 × 10^3 counts | 5.24 × 10^2 counts | 9.47 × 10^2 counts | internalized to the cytoplasm
